Data published in patent EP3733658B1, “PRENYLATED BENZOPYRANES AS PPAR AGONISTS” (Universitat de València, priority 2017, dated 2019).
Read-outs that look alike come from different tables or passages of the source.

What was measured:
hPPARγ = target: T1, hPPARγ (Homo sapiens, UniProt P37231); assay: PPAR/Gal4 chimera luciferase reporter transactivation assay in transiently transfected Cos-7 cells (hPPARγ); format: cell-based; conditions: for Emax: COS-7, read-out: hPPARγ Efficacy (%); for hPPARγ Efficacy (%): maximum activity as percentage of the maximum activity of rosiglitazone
T1 sequence (P37231 238-505): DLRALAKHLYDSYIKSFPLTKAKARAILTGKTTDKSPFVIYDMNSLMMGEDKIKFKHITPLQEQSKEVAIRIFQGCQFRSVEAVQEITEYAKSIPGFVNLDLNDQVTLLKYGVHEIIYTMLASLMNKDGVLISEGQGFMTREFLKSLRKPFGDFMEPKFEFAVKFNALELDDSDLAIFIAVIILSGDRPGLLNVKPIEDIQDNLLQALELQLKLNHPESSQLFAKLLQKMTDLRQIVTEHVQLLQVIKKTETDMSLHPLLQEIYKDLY
Description: (§1) The cells were maintained under standard culture conditions (Dulbecco modified minimum essential Eagle medium, DMEM) supplemented with 10% fetal calf serum (FCS) at 37°C in 5% […] CO2 atmosphere. The medium was changed every 2 days. The Cos-7 cells were seeded in 60 mm discs at a density of 5.5 × 10^5 cells/disc in DMEM supplemented with 10% FCS and incubated at 37°C for 16 h before transfection. The cells were transfected in DMEM using jetPEI, with reporter (pG5-TK-pGL3) and expression (pGal4-h, hPPARα or hPPARγ) plasmids. The expression plasmid pCMV-β-galactosidase was cotransfected as a control for transfection efficacy. After 16 h the transfection was stopped adding DMEM supplemented with 10% FCS, and the cells were trypsinised and seeded in 96-well plates and incubated for 6 h in DMEM containing 10% FCS. Subsequently, the cells were incubated for 24 h in DMEM containing 0.2% FCS and increasing concentrations of the compounds or the vehicle (DMSO, maximum concentration 0.1%) were tested. Finally, the cells were washed once with PBS cooled on ice, lysed and the luciferase and β-galactosidase assays were performed.
(§2) To evaluate the compounds for PPAR transcriptional activity, the tests were conducted in a PPAR/Gal4 chimera of a human luciferase reporter gene to determine the maximum transactivation response of each compound.

hPPARα = target: T2, hPPARα (Homo sapiens, UniProt Q07869); assay: PPAR/Gal4 chimera luciferase reporter transactivation assay in transiently transfected Cos-7 cells (hPPARα); format: cell-based; conditions: for Emax: COS-7, read-out: hPPARα Efficacy (%); for hPPARα Efficacy (%): maximum activity as percentage of the maximum activity of WY-14643; for EC50: Cos-7 cells, 24 h, tested 0.001 to 10 µM, read-out: hPPARα EC50
T2 sequence (Q07869 167-468): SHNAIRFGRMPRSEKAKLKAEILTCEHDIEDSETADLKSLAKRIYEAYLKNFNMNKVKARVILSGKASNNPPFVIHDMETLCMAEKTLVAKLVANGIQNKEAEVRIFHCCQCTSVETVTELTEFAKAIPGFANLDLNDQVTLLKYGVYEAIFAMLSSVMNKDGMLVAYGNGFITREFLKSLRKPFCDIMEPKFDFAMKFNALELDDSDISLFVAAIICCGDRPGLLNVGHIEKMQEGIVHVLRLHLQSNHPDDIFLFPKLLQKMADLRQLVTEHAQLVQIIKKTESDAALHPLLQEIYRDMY
Description: as §1, §2

human neutrophils [1] = assay: MTT colorimetric cell viability assay, neutrophils; format: cell-based; conditions: 30 µM, 24 h
Description: (§3) To evaluate potential adverse effects (cytotoxicity) of the compounds of the invention, the compounds 1 and 2 for use according to the present invention, compound 8 of the invention, and the reference compounds were evaluated at concentrations of 30 and 100 µM in human neutrophils (Fig. 1A) and primary cultures of human umbilical vein endothelial cells (HUVEC) (Fig. 1B) using two different techniques: MTT colorimetry assay and flow cytometry analysis for cellular apoptosis and survival. In addition, the synthetic compound 9 of the invention was evaluated at 10, 30 and 100 µM (Fig. 2).
(§4) MTT assay. The viability of neutrophils and HUVEC was determined by the MTT colorimetric assay MTT (3(4,5-dimethylthiazol-2-yl)-2,5-diphenyltetrazoyl bromide).
Neutrophils were obtained from the leukocyte-platelet fraction (buffy coats) of healthy donors by centrifuging with Ficoll-Hypaque density gradient.
(§5) 100 µL of neutrophils and HUVEC (2 × 10^5 cells/mL) suspension in supplemented RPMI medium were added to each well of a 96-well plate. The cells were incubated in absence and/or presence of the compounds at 37°C for24h. An MTT solution was prepared (2 mg/mL in PBS). 100 µL of the MTT solution were added to each well and incubated at 37°C for an additional 3 h. The supernatants were discarded and 200 µL of DMSO were added to each well to dissolve the precipitated formazan. The optical densities at two wavelengths (560 and 630 nm) were measured in a spectrophotometer (Infinite M200, Tecan, Mannedorf, Switzerland).

[2] = Treatment of ob/ob mice: plasma metabolites (cholesterol, HDL-c, triglycerides, free fatty acids, ALT, AST); format: in vivo; conditions: oral, 4 days
Description: […]. […] […].
Free fatty acids (FFA) in plasma, and the enzymes aspartate aminotransferase (AST) and alanine aminotransferase (ALT) were determined with a colorimetric assay kit (Sigma-Aldrich, Madrid, Spain). In addition the plasma lipid levels for total cholesterol and triglycerides (TG) were measured by enzymatic methods (WAKO, Cape Charles, VA). The concentration of HDLcholesterol (HDL-c) was also determined with the same method used to measure total cholesterol, after precipitating the apolipoprotein-B (apoB) with dextran sulphate/MgCl2 (Sigma-Aldrich, Madrid, Spain) as previously described (Zieske et al., 2005).

[3] = test system: human umbilical vein endothelial cells (HUVEC); assay: MTT colorimetric cell viability assay, HUVEC; format: cell-based; conditions: 30 µM, 24 h
Description: as §3, §4
Human umbilical vein endothelial cells (HUVEC) were isolated with the collagenase treatment and maintained in a human specific endothelial base medium (EBM-2) supplemented with endothelial growth medium (EGM-2) and 10% FCS. Cells of the first passage were cultured until their confluence in 24-well plates. Before starting each experiment, the cells were incubated for 24 h in a medium containing 1% FBS.
as §5

HUVEC = assay: Annexin V / propidium iodide flow cytometry of apoptosis and survival, HUVEC; format: cell-based, human; conditions: 24 h; for apoptosis and survival: 30 µM; for reduced cell survival: 100 µM
Description: (§6) In addition, the apoptosis and survival rate for human neutrophils and HUVEC was determined by double staining with annexin V and propidium iodide (PI) by flow cytometry.
(§7) Cytofluorometric analysis of apoptosis and survival. The kit FITC Annexin V Apoptosis Detection kit (BD Bioscience, San Jose, CA) was used. The staining protocol and all the reagents were supplied with the commercial kit. HUVEC were separated from the culture flasks by accutase (StemPro® Accutase® Cell dissociation reagent, Thermofischer Scientific Waltham, MA). Both cell types were incubated at 37°C for 24h in the presence or absence of the test compounds. Confluent HUVEC and freshly isolated neutrophils were washed, resuspended in binding buffer 1x (1 × 10^6 cells/mL) and stained with annexin V conjugated with FITC and propidium iodide (PI) as described in the manufacturer's instructions. The cells were analyzed in a BD FACSVerse Flow Cytometer (BD Biosciences, San Jose, CA) and differentiated as early apoptosis cells (annexin V^+ and PI^-), late apoptosis cells and/or necrotic cells (annexin V^+ and PI^+), and live cells (annexin V^- and PI^-).

human neutrophils [4] = assay: Annexin V / propidium iodide flow cytometry of apoptosis and survival, neutrophils; format: cell-based; conditions: 100 µM, 24 h, compared to the vehicle
Description: as §6, §7

[5] = Cos-7 cells, 24 h, tested 0.001 to 10 µM, read-out: hPPARγ EC50

Compound	Emax (hPPARγ) [%]	EC50 (hPPARγ; [5]) [µM]	Emax (hPPARα) [%]	further results
CCOC(=O)/C(=C/CC/C(C)=C/CCC1(C)CCc2cc(OCc3ccc(F)cc3)ccc2O1)OCC (stereo not shown) [Compound 12]	183	2	113	–
COC(=O)C(OC(=O)/C(C)=C/CC/C(C)=C/CCC1(C)CCc2cc(OC)cc(C)c2O1)C(=O)OC (stereo not shown) [Compound 7]	37	–	76	–
Cc1cccc(Nc2cc(Cl)nc(SCC(=O)O)n2)c1C [WY-14643, reference compound]	–	–	–	cytotoxicity (MTT) (human neutrophils [1]): 9%; triglyceride levels in plasma (in words) [2]: decrease of triglyceride levels in plasma, although not in a significant manner; increase of total cholesterol levels with respect to the control group ([2]; plasma, 30 mg/Kg/d): 64%; HDL-c with respect to the control group ([2]; plasma, compound 9 10 and 30 mg/Kg/d, WY-14643 30 mg/Kg/d): significantly increased
CCCOC(=O)/C(C)=C/CC/C(C)=C/CCC1(C)CCc2cc(O)cc(C)c2O1 (stereo not shown) [Compound 3]	86	–	100	–
CCOC(=O)C(=CCCC1(C)CCc2cc(OCc3ccccc3)ccc2O1)OCC(F)(F)F (stereo not shown) [Compound 13]	–	–	–	EC50 (hPPARγ): 0.4 µM; hPPARγ Efficacy (%) (hPPARγ): 39%; hPPARα Efficacy (%) (hPPARα): 166%
COc1cc(C)c2c(c1)CCC(C)(CC/C=C(\C)CC/C=C(\C)C(=O)O)O2 (stereo not shown) [Polycerasoidin, 2, polycerasoidin]	55	1	82	toxicity (MTT) [3]: showed toxicity; toxicity (MTT) (human neutrophils [1]): showed toxicity; EC50 (hPPARα): 1 µM; apoptosis and survival (HUVEC): some significant effects; reduced cell survival (HUVEC): 38,9%
C/C(=C\CCC1(C)CCc2cc(OCC(N)=O)cc(C)c2O1)CC/C=C(\C)C(=O)OCc1ccccc1 (stereo not shown) [Compound 4a]	0	–	18	–
COC(=O)C(C)=CCCC(C)=CCCC1(C)CCc2cc(O)cc(C)c2O1 (stereo not shown) [Compound 5]	–	0.574	–	hPPARγ Efficacy (%) (hPPARγ): 35%; hPPARα Efficacy (%) (hPPARα): 27%
CN(CCOc1ccc(CC2SC(=O)NC2=O)cc1)c1ccccn1 (stereo not shown) [Rosiglitazone, rosiglitazone, reference compound]	–	–	–	effect on cell survival (human neutrophils [4]): 8.5%; apoptosis and survival (HUVEC): some significant effects; reduced cell survival (HUVEC): 79,2%
COC(=O)COC(=O)/C(C)=C/CC/C(C)=C/CCC1(C)CCc2cc(OC)cc(C)c2O1 (stereo not shown) [Compound 8]	24	0.012	39	effect on cell survival (human neutrophils [4]): 5.3%; toxicity (MTT) [3]: showed toxicity; toxicity (MTT) (human neutrophils [1]): showed toxicity; apoptosis and survival (HUVEC): some significant effects; reduced cell survival (HUVEC): 61,3%
CCOC(=O)/C(=C/CC/C(C)=C/CCC1(C)CCc2cc(OCc3ccccc3)ccc2O1)OCC (stereo not shown) [Compound 10]	183	2	60	–
COC(=O)COC(=O)/C(C)=C/CC/C(C)=C/CCC1(C)CCc2cc(OC(=O)c3ccccc3)cc(C)c2O1 (stereo not shown) [Compound 6]	0	–	14	–
CCO/C(=C\CC/C(C)=C/CCC1(C)CCc2cc(OCc3ccccc3)ccc2O1)C(=O)O (stereo not shown) [Compound 11]	62	0.3	96	EC50 (hPPARα): 1.5 µM
C/C(=C\CCC1(C)CCc2cc(OCc3ccccc3)cc(C)c2O1)CC/C=C(\C)C(=O)OCc1ccccc1 (stereo not shown) [Compound 4b]	0	–	28	–
